Measurements: article PMC8041193 (PLoS ONE, 2021)
Ends that are not written are not given here.

Columns and labels:
[1] = cited from earlier work
Description: In vitro dissolution is the standard method used in the pharmaceutical industry to assess drug release from solid oral dosage forms and to predict the release profile in the GI tract by simulating the GI environment with appropriate buffer media. In vivo/ in vitro correlation analysis (IVIVC) was specifically designed to assess whether in vitro predictions match in vivo drug behavior. However, in this study IVIVC could not be performed for several reasons, including the lack of an injectable formulation, an immediate release and other multiple other extended release formulations and the ...

[2] = LA concentration in porcine intestinal fluid collected via in vivo ultrafiltration probes, UPLC-MS/MS; settings: pig; for level at time molar at 1 h / level at time molar at 2 h / level at time molar at 3 h / level at time molar at 4 h: female, Yorkshire cross, po, 1 mg; for Concentration of LA fragments in duodenal and jejunal samples: oral 1 mg LA, fragments detected, all concentrations below the LLOQ, UPLC-MS/MS;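 for all read-outs here: pigs aged 6–8 weeks and weighing 15–20 kg, intestinal fluid sampled through surgically implanted ultrafiltration probes whose placement was checked post mortem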
Procedure: Three female Yorkshire cross pigs weighing between 15–20 kg and 6–8 weeks of age were used in this study. […] All pigs were considered healthy on the basis of physical exams, which were performed upon delivery and after a minimum of 3 days’ acclimatization. The animals were housed individually in stainless steel pens to allow comprehensive observation of changes to the animal’s behavior, feed consumption, and volume or character of excreta. While housed in pens, each animal had free access to water, and commercial pig pelleted feed was provided twice daily.
Pigs were sedated with injection of ketamine (11 mg/kg, IM; Vedco) and xylazine (0.25 mg/kg, IM; Akorn Animal Health). Intravenous administration of buprenorphine (0.04 mg/kg; Par Pharmaceutical) and intramuscular administration of flunixin meglumine (2.2 mg/kg; Norbrook) and ceftiofur sodium (Excede for Swine, 8mg/kg; Med Pharmex Inc) were given for analgesia and infection prophylaxis, respectively. Pigs were intubated and maintained under general anesthesia using isoflurane delivered in 100% oxygen during the surgery. The abdomen was approached via midline laparotomy, and the pylorus was located. The duodenum was traced from the pylorus to an accessible point on the left side of the abdomen approximately 15–18 cm distal to the pylorus (Fig 2). The intestine was lifted and an incision was made using a #11 scalpel blade, piercing the anti-mesenteric intestinal wall into the lumen. A guide needle was used to introduce the UF probe into the duodenum threading the probe proximally toward the pylorus. The guide needle was subsequently removed, taking care to leave the UF probe in place [20]. The three loops of the UF probe remained within the intestine, and each probe was secured in the intestine by using a Halstead pattern suture around the probe, followed by a finger trap suture pattern using 3–0 Vicryl (Henry Schein). The nonpermeable connection tubing of the UF probe was extended to the lateral body wall, paramedian to the incision, and retrieved through a guide needle in order to exteriorize the tubing. The tubing was secured outside the animal by suturing the tubing to the skin using 3–0 nylon suture (Fig 3). The tubing was attached to a needle inserted into a vacutainer for sample collection during the remainder of the experiment. A second UF probe was placed into the jejunum 20 cm distal to the duodenum using the same methodology (Fig 2). The abdomen was closed in a routine manner. The pigs were monitored for assessment of pain each day of the experiment and given buprenorphine as an analgesic medication if necessary.
The formulated beads were weighed and placed into gelatin capsules prior to dosing.

[3] = Non compartmental pharmacokinetic analysis of LA in porcine intestinal fluid; type: in vivo; settings: pig intestinal fluid, oral LA 1 mg total (~0.05 mg/kg)
Procedure: Non compartmental pharmacokinetic analyses of LA in the intestinal fluid was performed using commercially available software (Phoenix® WinNonlin® Software version 8.3, Certara, Princeton, NJ). The pharmacokinetic parameters estimated for LA in intestinal fluid after oral administration included the elimination rate constant (λz), elimination half life (HLλz), the area under the curve from time zero to the last time point (AUClast), the maximum concentration (Cmax), time to maximum concentration (Tmax), the mean drug residence time from time zero to the last time point (MRTlast), which were calculated using the linear log trapezoidal method.

[4] = intestinal fluid (distal duodenum)
[5] = intestinal fluid (proximal jejunum)
[6] = intestinal fluid, distal duodenum
[7] = intestinal fluid, proximal jejunum
[8] = distal duodenum, mean of 3 dose replicates
[9] = proximal jejunum, mean of 3 dose replicates

Substance: GGVLVQPG [LA, Larazotide acetate]
- Concentrations in human plasma ([1]; all groups administered 0.25, 1, 4 and 8 mg LA, below the LOQ): < 0.5 ng/mL
- Plasma concentrations ([1]; human plasma, oral LA (12mg), HPLC-MS/MS, all below LLOQ): < 0.5 ng/mL
- level at time molar at 1 h [2, 4]: 0.74 ± 0.3 µM
- level at time molar at 2 h [2, 4]: 0.27 ± 0.14 µM
- level at time molar at 3 h [2, 4]: 0.12 ± 0.09 µM
- level at time molar at 4 h [2, 4]: 0.03 ± 0.01 µM
- level at time molar at 1 h [2, 5]: 1.1 ± 0.48 µM
- level at time molar at 2 h [2, 5]: 0.25 ± 0.13 µM
- level at time molar at 3 h [2, 5]: 0.09 ± 0.1 µM
- level at time molar at 4 h [2, 5]: 0.03 ± 0.04 µM
- level at time molar at 1 h [2, 6]: 0.74 µM
- level at time molar at 2 h [2, 6]: 0.27 µM
- level at time molar at 3 h [2, 6]: 0.12 µM
- level at time molar at 4 h [2, 6]: 0.03 µM
- level at time molar at 1 h ([2]; intestinal fluid, distal duodenum, LA concentration (µM), oral 1 mg LA human clinical formulation, 1h, case number 1, single measurement): 0.32 µM
- level at time molar at 1 h ([2]; intestinal fluid, distal duodenum, LA concentration (µM), oral 1 mg LA human clinical formulation, 1h, case number 2, single measurement): 0.98 µM
- level at time molar at 1 h ([2]; intestinal fluid, distal duodenum, LA concentration (µM), oral 1 mg LA human clinical formulation, 1h, case number 3, single measurement): 0.93 µM
- level at time molar at 2 h ([2]; intestinal fluid, distal duodenum, LA concentration (µM), oral 1 mg LA human clinical formulation, 2h, case number 1, single measurement): 0.14 µM
- level at time molar at 2 h ([2]; intestinal fluid, distal duodenum, LA concentration (µM), oral 1 mg LA human clinical formulation, 2h, case number 2, single measurement): 0.21 µM
- level at time molar at 2 h ([2]; intestinal fluid, distal duodenum, LA concentration (µM), oral 1 mg LA human clinical formulation, 2h, case number 3, single measurement): 0.47 µM
- level at time molar at 3 h ([2]; intestinal fluid, distal duodenum, LA concentration (µM), oral 1 mg LA human clinical formulation, 3h, case number 1, single measurement): 0.03 µM
- level at time molar at 3 h ([2]; intestinal fluid, distal duodenum, LA concentration (µM), oral 1 mg LA human clinical formulation, 3h, case number 2, single measurement): 0.09 µM
- level at time molar at 3 h ([2]; intestinal fluid, distal duodenum, LA concentration (µM), oral 1 mg LA human clinical formulation, 3h, case number 3, single measurement): 0.25 µM
- level at time molar at 4 h ([2]; intestinal fluid, distal duodenum, LA concentration (µM), oral 1 mg LA human clinical formulation, 4h, case number 1, single measurement): 0.03 µM
- level at time molar at 4 h ([2]; intestinal fluid, distal duodenum, LA concentration (µM), oral 1 mg LA human clinical formulation, 4h, case number 2, single measurement): 0.02 µM
- level at time molar at 4 h ([2]; intestinal fluid, distal duodenum, LA concentration (µM), oral 1 mg LA human clinical formulation, 4h, case number 3, single measurement): 0.03 µM
- level at time molar at 1 h [2, 7]: 1.1 µM
- level at time molar at 2 h [2, 7]: 0.25 µM
- level at time molar at 3 h [2, 7]: 0.09 µM
- level at time molar at 4 h [2, 7]: 0.03 µM
- level at time molar at 1 h ([2]; intestinal fluid, proximal jejunum, LA concentration (µM), oral 1 mg LA human clinical formulation, 1h, case number 1, single measurement): 0.65 µM
- level at time molar at 1 h ([2]; intestinal fluid, proximal jejunum, LA concentration (µM), oral 1 mg LA human clinical formulation, 1h, case number 2, single measurement): 1.76 µM
- level at time molar at 1 h ([2]; intestinal fluid, proximal jejunum, LA concentration (µM), oral 1 mg LA human clinical formulation, 1h, case number 3, single measurement): 0.88 µM
- level at time molar at 2 h ([2]; intestinal fluid, proximal jejunum, LA concentration (µM), oral 1 mg LA human clinical formulation, 2h, case number 1, single measurement): 0.13 µM
- level at time molar at 2 h ([2]; intestinal fluid, proximal jejunum, LA concentration (µM), oral 1 mg LA human clinical formulation, 2h, case number 2, single measurement): 0.18 µM
- level at time molar at 2 h ([2]; intestinal fluid, proximal jejunum, LA concentration (µM), oral 1 mg LA human clinical formulation, 2h, case number 3, single measurement): 0.43 µM
- level at time molar at 3 h ([2]; intestinal fluid, proximal jejunum, LA concentration (µM), oral 1 mg LA human clinical formulation, 3h, case number 1, single measurement): 0.04 µM
- level at time molar at 3 h ([2]; intestinal fluid, proximal jejunum, LA concentration (µM), oral 1 mg LA human clinical formulation, 3h, case number 3, single measurement): 0.22 µM
- level at time molar at 4 h ([2]; intestinal fluid, proximal jejunum, LA concentration (µM), oral 1 mg LA human clinical formulation, 4h, case number 2, single measurement): 0.09 µM
- Continued presence of LA, concentration in proximal jejunum ([2]; fasted, oral 1 mg LA clinical formulation, proximal jejunum, 2–4 hours, range of individual samples): 0.00 to 0.43 µM
- LA concentration ([2]; oral 1 mg LA human clinical formulation, proximal jejunum, 0h, case number 2, single measurement): 0.00 µM
- LA concentration ([2]; oral 1 mg LA human clinical formulation, proximal jejunum, 0h, case number 3, single measurement): 0.00 µM
- LA concentration ([2]; oral 1 mg LA human clinical formulation, proximal jejunum, 3h, case number 2, single measurement, below LOD reported as zero): 0.00 µM
- LA concentration ([2]; oral 1 mg LA human clinical formulation, proximal jejunum, 4h, case number 1, single measurement, below LOD reported as zero): 0.00 µM
- LA concentration ([2]; oral 1 mg LA human clinical formulation, proximal jejunum, 4h, case number 3, single measurement, below LOD reported as zero): 0.00 µM
- MRTlast, mean residence time from time zero to the last time point ([3]; distal duodenum, dose replicate # 1): 1.58 h
- MRTlast, mean residence time from time zero to the last time point ([3]; distal duodenum, dose replicate # 2): 1.42 h
- MRTlast, mean residence time from time zero to the last time point ([3]; distal duodenum, dose replicate # 3): 1.65 h
- AUClast, area under the curve from time zero to the last time point [3, 8]: 770 ng·h/mL
- Cmax, maximum concentration [3, 8]: 530 ng/mL
- HLλz, elimination half life [3, 8]: 0.65 h
- MRTlast, mean residence time from time zero to the last time point [3, 8]: 1.55 h
- Tmax, time to the maximum concentration [3, 8]: 1 h
- Λz, elimination rate constant [3, 8]: 1.14 h⁻¹
- MRTlast, mean residence time from time zero to the last time point ([3]; proximal jejunum, dose replicate # 1): 1.31 h
- MRTlast, mean residence time from time zero to the last time point ([3]; proximal jejunum, dose replicate # 2): 1.26 h
- MRTlast, mean residence time from time zero to the last time point ([3]; proximal jejunum, dose replicate # 3): 1.53 h
- AUClast, area under the curve from time zero to the last time point [3, 9]: 910 ng·h/mL
- Cmax, maximum concentration [3, 9]: 780 ng/mL
- HLλz, elimination half life [3, 9]: 0.76 h
- MRTlast, mean residence time from time zero to the last time point [3, 9]: 1.37 h
- Tmax, time to the maximum concentration [3, 9]: 1 h
- Λz, elimination rate constant [3, 9]: 1.0 h⁻¹

Substance: H-GGVLVQP-OH [Fragment 3]
- Concentration of LA fragments in duodenal and jejunal samples [2]: < 150 nM

Substance: H-GVLVQPG-OH [Fragment 1]
- Concentration of LA fragments in duodenal and jejunal samples [2]: < 150 nM

Substance: H-VLVQPG-OH [Fragment 2]
- Concentration of LA fragments in duodenal and jejunal samples [2]: < 160 nM

Substance: H-Val-Leu-Val-Gln-Pro-OH [Fragment 4]
- Concentration of LA fragments in duodenal and jejunal samples [2]: < 170 nM
